Measurements: patent US9999222B2, “Herbicidal combination comprising azines” (BASF SE, priority 2014, dated 2018)
Read-outs that look alike come from different tables or passages of the source.

Experiments:
Test in all cases: Greenhouse test, pre-emergence treatment
ALOMY = assay type: in vivo, Alopecurus myosuroides; conditions: Alopecurus myosuroides, pre-emergence, 480 h, ALOMY, pre-emergence, read-out: observed % activity 20 DAT
Procedure, shortened: (§1)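 Seeds were sown in loamy sand with about 3.0% humus, and compounds in water were sprayed immediately after sowing, alone or as combinations formulated as 10% emulsion concentrates. Plants grew under hoods until rooted, at 10-25 °C or 20-35 °C by species, for 2 to 4 weeks. Damage was scored 0-100 (100 = no emergence or complete destruction), and Colby expected values were E=X+Y−(X·Y/100).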

SETFA = assay type: in vivo, Setaria faberi; conditions: Setaria faberi, 480 h, SETFA, individual, read-out: observed % activity 20 DAT
Procedure, shortened: as §1

GALAP = assay type: in vivo, Galium aparine; conditions: Galium aparine, pre-emergence, 480 h, pre-emergence, read-out: observed % activity 20 DAT
Procedure, shortened: as §1

LOLMU = assay type: in vivo, Lolium multiflorum; conditions: Lolium multiflorum, pre-emergence, 480 h, LOLMU, pre-emergence, individual, use rate 6.25 g ai/ha; read-out: observed % activity 20 DAT
Procedure, shortened: as §1

EPHHL = assay type: in vivo, Euphorbia heterophylla; conditions: Euphorbia heterophylla, pre-emergence, 480 h, 20 DAT, read-out: observed % activity
Procedure, shortened: as §1

GERPU = assay type: in vivo, Geranium pusillum; conditions: Geranium pusillum, pre-emergence, 480 h, 20 DAT, read-out: observed % activity
Procedure, shortened: as §1

POLCO = assay type: in vivo, Polygonum convolvulus; conditions: Fallopia convolvulus, pre-emergence, 480 h; for inhibition at 6.25 g/ha: use rate 6.25 g ai/ha
Procedure, shortened: as §1

COMBE = assay type: in vivo, Commelina benghalensis; conditions: Commelina benghalensis, pre-emergence, 480 h
Procedure, shortened: as §1

SIDRH = assay type: in vivo, Sida rhombifolia; conditions: Sida rhombifolia, pre-emergence, 480 h
Procedure, shortened: as §1

KCHSC = assay type: in vivo, Kochia scoparia
Procedure, shortened: as §1

ECHCG = assay type: in vivo, Echinocloa crus-galli; conditions: Echinochloa crus-galli, 480 h, ECHCG, use rate 3.125 g ai/ha, 20 DAT, read-out: observed % activity 20 DAT
Procedure, shortened: as §1

BRADC = assay type: in vivo, Brachiaria decumbens; conditions: Urochloa decumbens, pre-emergence, 480 h, pre-emergence, 36 g ai/ha; read-out: observed % activity 20 DAT
Description: The culture containers used were plastic flowerpots containing loamy sand with approximately 3.0% of humus as the substrate. The seeds of the test plants were sown separately for each species.
For the pre-emergence treatment, the active ingredients, which had been suspended or emulsified in water, were applied directly after sowing by means of finely distributing nozzles. The containers were irrigated gently to promote germination and growth and subsequently covered with transparent plastic hoods until the plants had rooted. This cover caused uniform germination of the test plants, unless this had been impaired by the active ingredients.
Depending on the species, the plants were kept at 10-25° C. or 20-35° C., respectively.
The test period extended over 2 to 4 weeks. During this time, the plants were tended, and their response to the individual treatments was evaluated.
Evaluation was carried out using a scale from 0 to 100. 100 means no emergence of the plants, or complete destruction of at least the aerial moieties, and 0 means no damage, or normal course of growth. A moderate herbicidal activity is given at values of at least 60, a good herbicidal activity is given at values of at least 70, and a very good herbicidal activity is given at values of at least 85.
The respective stated components a and b, and if appropriate, c were formulated as a 10% by weight strength emulsion concentrate and, with addition of the amount of solvent system, introduced into the spray liquor used for applying the active compound.
In the examples, the solvent used was water.
In the examples below, using the method of S. R. Colby (1967) “Calculating synergistic and antagonistic responses of herbicide combinations”, Weeds 15, p. 22ff., the value E, which is expected if the activity of the individual active compounds is only additive, was calculated. E=X+Y−(X·Y/100) where • X=percent activity using active compound a at an application rate A; • Y=percent activity using active compound b at an application rate B; • E=expected activity (in %) by a+b at application rates A+B.
If the value found experimentally is higher than the value E calculated according to Colby, a synergistic effect is present.

[1] = 5 g ai/ha, 20 DAT, read-out: observed % activity
[2] = 10 g ai/ha, 20 DAT, read-out: observed % activity
[3] = 10 g ai/ha, read-out: observed % activity 20 DAT

In the case of CC(C)N(C)S(=O)(=O)NC(=O)c1cc(-n2c(=O)cc(C(F)(F)F)n(C)c2=O)c(F)cc1Cl [Saflufenacil, saflufenacil], the inhibition at 6.25 g/ha (ALOMY; individual, use rate 6.25 g ai/ha) is reported as 0%, the inhibition at 12.5 g/ha (ALOMY; individual, use rate 12.5 g ai/ha) is reported as 0% and the inhibition at 3.125 g/ha (ALOMY; use rate 3.125 g ai/ha, 20 DAT) is reported as 0%. It also gave an inhibition at 6.25 g/ha (SETFA; use rate 6.25 g ai/ha) of 0%, an inhibition at 12.5 g/ha (SETFA; use rate 12.5 g ai/ha) of 0% and an inhibition at 5 g/ha (GALAP; GALAP, individual, use rate 5 g ai/ha) of 25%. The inhibition at 10 g/ha (GALAP; GALAP, individual, use rate 10 g ai/ha) was 50%, the inhibition at 5 g/ha (GALAP; 5 g ai/ha) was 25% and the inhibition at 10 g/ha (GALAP; 10 g ai/ha) was 50%. It also gave an inhibition at 6.25 g/ha (LOLMU) of 0%, an inhibition at 5 g/ha (EPHHL; 5 g ai/ha) of 80% and an inhibition at 10 g/ha (EPHHL; 10 g ai/ha) of 95%. For the same compound, the inhibition at 5 g/ha (GERPU; 5 g ai/ha) was 25%, the inhibition at 10 g/ha (GERPU; 10 g ai/ha) was 25% and the inhibition at 5 g/ha (POLCO; [1]) was 60%. It also gave an inhibition at 10 g/ha (POLCO; [2]) of 65%, an inhibition at 6.25 g/ha (POLCO; POLCO, individual, read-out: observed % activity 20 DAT) of 70% and an inhibition at 10 g/ha (POLCO; POLCO, individual, use rate 10 g ai/ha, read-out: observed % activity 20 DAT) of 25%. It also gave an inhibition at 12.5 g/ha (POLCO; POLCO, individual, use rate 12.5 g ai/ha, read-out: observed % activity 20 DAT) of 85%, an inhibition at 10 g/ha (POLCO; [3]) of 25% and an inhibition at 6.25 g/ha (POLCO; POLCO, 20 DAT, read-out: observed % activity 20 DAT) of 70%. It also gave an inhibition at 5 g/ha (COMBE; [1]) of 65%, an inhibition at 10 g/ha (COMBE; [2]) of 98% and an inhibition at 5 g/ha (COMBE; COMBE, individual, use rate 5 g ai/ha, read-out: observed % activity 20 DAT) of 0%. The inhibition at 10 g/ha (COMBE; COMBE, individual, use rate 10 g ai/ha, read-out: observed % activity 20 DAT) was 15%, the inhibition at 5 g/ha (COMBE; 5 g ai/ha, read-out: observed % activity 20 DAT) was 0% and the inhibition at 10 g/ha (COMBE; [3]) was 15%. For the same compound, the inhibition at 5 g/ha (SIDRH; [1]) was 55%, the inhibition at 10 g/ha (SIDRH; [2]) was 90% and the inhibition at 10 g/ha (SIDRH; SIDRH, individual, use rate 10 g ai/ha, read-out: observed % activity 20 DAT) was 20%. The inhibition at 10 g/ha (SIDRH; [3]) was 20%, the observed % activity (KCHSC; 5 g ai/ha, 20 DAT) was 85% and the inhibition at 5 g/ha (KCHSC; Bassia scoparia, pre-emergence, 480 h, 5 g ai/ha, 20 DAT, read-out: observed % activity) was 70%. The inhibition at 5 g/ha (KCHSC; Bassia scoparia, pre-emergence, 480 h, KCHSC, pre-emergence, individual, use rate 5 g ai/ha, read-out: observed % activity 20 DAT) was 70%, the inhibition at 6.25 g/ha (KCHSC; Bassia scoparia, pre-emergence, 480 h, KCHSC, pre-emergence, individual, use rate 6.25 g ai/ha, read-out: observed % activity 20 DAT) was 30% and the inhibition at 10 g/ha (KCHSC; Bassia scoparia, pre-emergence, 480 h, KCHSC, pre-emergence, individual, use rate 10 g ai/ha, read-out: observed % activity 20 DAT) was 65%. For the same compound, the inhibition at 12.5 g/ha (KCHSC; Bassia scoparia, pre-emergence, 480 h, KCHSC, pre-emergence, individual, use rate 12.5 g ai/ha, read-out: observed % activity 20 DAT) was 70%, the inhibition at 5 g/ha (KCHSC; Bassia scoparia, pre-emergence, 480 h, pre-emergence, 5 g ai/ha, read-out: observed % activity 20 DAT) was 70% and the inhibition at 10 g/ha (KCHSC; Bassia scoparia, pre-emergence, 480 h, pre-emergence, 10 g ai/ha, read-out: observed % activity 20 DAT) was 65%. It also gave an inhibition at 3.125 g/ha (ECHCG) of 0% and an inhibition at 36 g/ha (BRADC) of 90%.
